The source of these data is ChEMBL document CHEMBL1130134, “Synthesis of carboranes containing an azulene framework and in vitro evaluation as boron carriers” (J Med Chem, 1997).

The test system of assay [1] is B16. Put plainly: Compound was tested for the in vitro growth inhibition of B-16 melanoma cells after incubation for 3 days (cytotoxicity), the dose that failed to inhibit cell growth by more than 50% was determined. In kind it is functional, cell-based. As to conditions: Mus musculus, B16, 72 h.
Assay [2] relates to B16. Put plainly: Boron incorporation into B-16 melanoma cells(1000000 cells) after 24 hours incubation (10.8 ug of B/mL). In kind it is functional, Mus musculus.

With `CC(C)(c1ccc(O)cc1)c1ccc(O)cc1` [BISPHENOL A], 8.6 mM corresponded to half-maximal inhibition with B16 [1] (IC50). In the assay with B16 [2], the B incorporation is 0.31 µg.

One may read the IC50 as the point on the concentration scale where inhibition reaches its midpoint. Low readings indicate greater potency in that assay, high ones weaker potency in that assay.
